Read-outs that look alike come from different tables or passages of the source.
Key:
Type in all cases: cell-based
HCC827 cells = assay: Cell growth inhibition (CellTiter-Glo), HCC827; details: Homo sapiens, 72 h, 3 days
In short: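 Readout was CellTiter-Glo luminescence after 3-day compound treatment at 37° C. Cells were seeded at 5000/well the previous night: HCC827 in RPMI/10% FBS, A431 in DMEM/10% FBS.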

[1] = tested on: HCC827-SVD cells (human EGFR exon 20 insertion mutant D770_N771insSVD); assay: Cell growth inhibition (CellTiter-Glo), HCC827-SVD; details: 72 h, 3 days
In short: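 Growth read by CellTiter-Glo luminescence after 3-day compound exposure at 37 °C. Engineered clonal HCC827 line (native EGFR deleted by CRISPR, mutant EGFR re-expressed) plated at 5000 cells/well in 10% FBS RPMI the night before dosing.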

[2] = tested on: HCC827-YVMA cells (human ERBB2 exon20 insertion mutant A775_G776ins YVMA); assay: Cell growth inhibition (CellTiter-Glo), HCC827-YVMA; details: 72 h, read-out: Cell growth inhibition, GI50 (nM) HCC827-YVMA
In short: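 Growth in RPMI with 10% FBS was measured by CellTiter-Glo luminescence after 3 days at 37 °C with test compounds across a concentration range. The single-clone HCC827 lines carry a lentiviral YVMA (ERBB2) or ASV (EGFR) exon 20 insertion, with endogenous EGFR removed via sgRNA/Cas9.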

A431 cells = assay: Cell growth inhibition (CellTiter-Glo), A431; details: Homo sapiens, A-431, 72 h, 3 days
Procedure: 2. Cell Growth Inhibition for HCC827, HCC827-SVD, HCC827-ASV, HCC827-YVMA, and A431.
HCC827(ATCC), HCC827-SVD, HCC827-ASV, and HCC827-YVMA cells were seeded in 96-well plates at 5000 cells/well in 90 μL of RPMI growth medium containing 10% FBS and 1% Penicillin Streptomycin. A431 (ATCC) cells were seeded in 96-well plates at 5000 cells/well in 90 μL of DMEM growth medium containing 10% FBS and 1% Penicillin Streptomycin. Cells were incubated at 37° C. overnight and then administered with 10 μL 10× test compounds prepared in the growth medium at various concentrations. After administration of the compounds, cells were incubated at 37° C. for 3 days. Before the CellTiter-Glo assay, the plates were equilibrated at room temperature for approximately 30 minutes. 100 ul of CellTiter-Glo reagent (Promega) was added to each well. The plates were then incubated at room temperature for 10 minutes and luminescence was recorded by the EnSight® multimode plate reader (PerkinElmer). Table 7 listed selected compounds in cellular growth assay.

[3] = HCC827-YVMA cells, 3 days, CellTiter-Glo

SMILES | GI50 (HCC827 cells) [nM] | GI50 [1] [nM] | GI50 [2, 3] [nM] | GI50 (A431 cells) [nM] | GI50 [2] [nM]
C=CC(=O)N1CCC(c2c[nH]c3ncnc(Nc4ccc(Oc5nc(-c6cnc(OC)nc6)cs5)cc4F)c23)CC1 [Compound 149, 1-(4-(4-((2-fluoro-4-((4-(2-methoxypyrimidin-5-yl)thiazol-2-yl)oxy)phenyl)amino)-7H-pyrrolo[2,3-d]pyrimidin-5-yl)piperidin-1-yl)prop-2-en-1-one] | > 1000 | 50 to 200 | 50 to 200 | > 1000 | –
C=CC(=O)N1CCC(c2c[nH]c3ncnc(Nc4ccc(Oc5ccn(-c6cnc(C)c(F)c6)n5)cc4F)c23)CC1 [Compound 150, 1-(4-(4-((2-fluoro-4-((1-(5-fluoro-6-methylpyridin-3-yl)-1H-pyrazol-3-yl)oxy)phenyl)amino)-7H-pyrrolo[2,3-d]pyrimidin-5-yl)piperidin-1-yl)prop-2-en-1-one] | 200 to 1000 | 50 to 200 | 50 to 200 | > 1000 | –
C=CC(=O)N1CCC(c2c[nH]c3ncnc(Nc4ccc(OCc5nccs5)c(Cl)c4)c23)CC1 [Compound 153, 1-(4-(4-((3-chloro-4-(thiazol-2-ylmethoxy)phenyl)amino)-7H-pyrrolo[2,3-d]pyrimidin-5-yl)piperidin-1-yl)prop-2-en-1-one] | < 50 | < 50 | < 50 | < 50 | –
C=CC(=O)N1CCN(c2n[nH]c3ncnc(Nc4ccc(OCc5ccccn5)c(Cl)c4)c23)CC1 [Compound 163, 1-(4-(4-((3-chloro-4-(pyridin-2-ylmethoxy)phenyl)amino)-1H-pyrazolo[3,4-d]pyrimidin-3-yl)piperazin-1-yl)prop-2-en-1-one] | < 50 | < 50 | < 50 | > 1000 | –
C=CC(=O)N1CCC(c2n[nH]c3ncnc(Nc4ccc(O[C@H]5CCCN(S(=O)(=O)c6ccccc6)C5)cc4F)c23)CC1 [Compound 165, (S)-1-(4-(4-((2-fluoro-4-((1-(phenylsulfonyl)piperidin-3-yl)oxy)phenyl)amino)-1H-pyrazolo[3,4-d]pyrimidin-3-yl)piperidin-1-yl)prop-2-en-1-one] | 200 to 1000 | 50 to 200 | 50 to 200 | > 1000 | –
C=CC(=O)N1CC(Nc2n[nH]c3ncnc(Nc4ccc(OCc5ccccn5)c(Cl)c4)c23)C1 [Compound 168, 1-(3-((4-((3-chloro-4-(pyridin-2-ylmethoxy)phenyl)amino)-1H-pyrazolo[3,4-d]pyrimidin-3-yl)amino)azetidin-1-yl)prop-2-en-1-one] | 200 to 1000 | > 1000 | > 1000 | > 1000 | –
C=CC(=O)N1CCC(Nc2n[nH]c3ncnc(Nc4ccc(OCc5ccccn5)c(Cl)c4)c23)CC1 [Compound 169, 1-(4-((4-((3-chloro-4-(pyridin-2-ylmethoxy)phenyl)amino)-1H-pyrazolo[3,4-d]pyrimidin-3-yl)amino)piperidin-1-yl)prop-2-en-1-one] | > 1000 | > 1000 | > 1000 | > 1000 | –
C=CC(=O)N1CCC(c2n[nH]c3ncnc(Nc4ccc(Oc5ccnc(-c6csc(C)n6)c5)cc4F)c23)CC1 [Compound 171, 1-(4-(4-((2-fluoro-4-((2-(2-methylthiazol-4-yl)pyridin-4-yl)oxy)phenyl)amino)-1H-pyrazolo[3,4-d]pyrimidin-3-yl)piperidin-1-yl)prop-2-en-1-one] | 200 to 1000 | 50 to 200 | – | > 1000 | < 50
C=CC(=O)N1CCC(c2n[nH]c3ncnc(Nc4ccc(Oc5ccnc(N6CCO[C@H](C)C6)c5)cc4F)c23)CC1 [Compound 172, (R)-1-(4-(4-((2-fluoro-4-((2-(2-methylmorpholino)pyridin-4-yl)oxy)phenyl)amino)-1H-pyrazolo[3,4-d]pyrimidin-3-yl)piperidin-1-yl)prop-2-en-1-one] | 200 to 1000 | 50 to 200 | 50 to 200 | > 1000 | –
C=CC(=O)N1CCC(c2n[nH]c3ncnc(Nc4ccc(Oc5ccnc(NC6CCOCC6)c5)cc4F)c23)CC1 [Compound 174, 1-(4-(4-((2-fluoro-4-((2-((tetrahydro-2H-pyran-4-yl)amino)pyridin-4-yl)oxy)phenyl)amino)-1H-pyrazolo[3,4-d]pyrimidin-3-yl)piperidin-1-yl)prop-2-en-1-one] | > 1000 | 200 to 1000 | 200 to 1000 | > 1000 | –
C=CC(=O)N1CCC(c2n[nH]c3ncnc(Nc4ccc(Oc5ccnc(N6C[C@H](OC)[C@H](OC)C6)c5)cc4F)c23)CC1 [Compound 176, 1-(4-(4-((4-((2-((3S,4R)-3,4-dimethoxypyrrolidin-1-yl)pyridin-4-yl)oxy)-2-fluorophenyl)amino)-1H-pyrazolo[3,4-d]pyrimidin-3-yl)piperidin-1-yl)prop-2-en-1-one] | > 1000 | 200 to 1000 | 200 to 1000 | > 1000 | –
C=CC(=O)N1CCC(c2n[nH]c3ncnc(Nc4ccc(Oc5ccnc(N6CC(C)(OC)C6)c5)cc4F)c23)CC1 [Compound 178, 1-(4-(4-((2-fluoro-4-((2-(3-methoxy-3-methylazetidin-1-yl)pyridin-4-yl)oxy)phenyl)amino)-1H-pyrazolo[3,4-d]pyrimidin-3-yl)piperidin-1-yl)prop-2-en-1-one] | > 1000 | 200 to 1000 | 50 to 200 | > 1000 | –
C=CC(=O)N1CCC(c2n[nH]c3ncnc(Nc4ccc(Oc5ccnc(N6CCC(C#N)C6)c5)cc4F)c23)CC1 (stereo not shown) [Compound 179, 1-(4-(4-((3-(1-acryloylpiperidin-4-yl)-1H-pyrazolo[3,4-d]pyrimidin-4-yl)amino)-3-fluorophenoxy)pyridin-2-yl)pyrrolidine-3-carbonitrile] | > 1000 | 200 to 1000 | 200 to 1000 | > 1000 | –
C=CC(=O)N1CCC(c2n[nH]c3ncnc(Nc4ccc(Oc5ccnc(N6CC7(CCOCC7)C6)c5)cc4F)c23)CC1 [Compound 181, 1-(4-(4-((4-((2-(7-oxa-2-azaspiro[3.5]nonan-2-yl)pyridin-4-yl)oxy)-2-fluorophenyl)amino)-1H-pyrazolo[3,4-d]pyrimidin-3-yl)piperidin-1-yl)prop-2-en-1-one] | > 1000 | 50 to 200 | 50 to 200 | > 1000 | –
C=CC(=O)N1CCC(c2n[nH]c3ncnc(Nc4ccc(Oc5ccnc(NC(=O)C(C)C)c5)cc4F)c23)CC1 [Compound 182, N-(4-(4-((3-(1-acryloylpiperidin-4-yl)-1H-pyrazolo[3,4-d]pyrimidin-4-yl)amino)-3-fluorophenoxy)pyridin-2-yl)isobutyramide] | > 1000 | 50 to 200 | 50 to 200 | > 1000 | –
C=CC(=O)N1CCC(c2n[nH]c3ncnc(Nc4ccc(Oc5ccn(S(=O)(=O)C(C)C)n5)cc4F)c23)CC1 [Compound 183, 1-(4-(4-((2-fluoro-4-((1-(isopropylsulfonyl)-1H-pyrazol-3-yl)oxy)phenyl)amino)-1H-pyrazolo[3,4-d]pyrimidin-3-yl)piperidin-1-yl)prop-2-en-1-one] | 200 to 1000 | 200 to 1000 | 200 to 1000 | > 1000 | –
C=CC(=O)N1CCC(c2n[nH]c3ncnc(Nc4ccc(Oc5ccnc(C(=O)NC)c5)cc4F)c23)CC1 [Compound 184, 4-(4-((3-(1-acryloylpiperidin-4-yl)-1H-pyrazolo[3,4-d]pyrimidin-4-yl)amino)-3-fluorophenoxy)-N-methylpicolinamide] | > 1000 | > 1000 | 200 to 1000 | > 1000 | –
C=CC(=O)N1CCC(c2n[nH]c3ncnc(Nc4ccc(O[C@H]5CCCN(S(=O)(=O)c6cccs6)C5)cc4F)c23)CC1 [Compound 186, (S)-1-(4-(4-((2-fluoro-4-((1-(thiophen-2-ylsulfonyl)piperidin-3-yl)oxy)phenyl)amino)-1H-pyrazolo[3,4-d]pyrimidin-3-yl)piperidin-1-yl)prop-2-en-1-one] | 200 to 1000 | 200 to 1000 | 50 to 200 | > 1000 | –
C=CC(=O)N1CCC(c2n[nH]c3ncnc(Nc4ccc(O[C@H]5CCCN(S(=O)(=O)c6ccc(OC)nc6)C5)cc4F)c23)CC1 [Compound 187, (S)-1-(4-(4-((2-fluoro-4-((1-((6-methoxypyridin-3-yl)sulfonyl)piperidin-3-yl)oxy)phenyl)amino)-1H-pyrazolo[3,4-d]pyrimidin-3-yl)piperidin-1-yl)prop-2-en-1-one] | 200 to 1000 | 200 to 1000 | 200 to 1000 | > 1000 | –
